Measurements published in patent publication US9738634B2, “Heterocyclic amide compound and herbicide” (SYNGENTA PARTICIPATIONS AG, priority 2013, dated 2017).

Experiments:
Assay type in all cases: in vivo
Settings in all cases: treatment dosage 320 g/ha
[1] = system: fig-leafed goosefoot; assay: Test Example 4: weedkilling efficacy by foliar treatment; M: fig-leafed goosefoot
In short: (§1)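 Seeds are spot-sown into sterilized diluvial soil and covered with about 1.5 cm of soil. After 14 days' greenhouse growth at 25 to 30° C, plants are sprayed on stems and leaves with diluted emulsion at the stated g/ha rate, then scored at 3 weeks.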

[2] = system: soybean; assay: Test Example 4: foliar treatment, effect on crop; d: soybean
In short: as §1

[3] = system: beet; assay: Test Example 4: foliar treatment, effect on crop; f: beet
In short: as §1

[4] = system: catchweed; assay: Test Example 4: weedkilling efficacy by foliar treatment; O: catchweed
In short: as §1

[5] = system: green foxtail; assay: Test Example 4: weedkilling efficacy by foliar treatment; E: green foxtail
In short: as §1

[6] = system: bulrush; assay: Test Example 2: weedkilling efficacy, growth period weed treatment in the submerged state; B: bulrush
In short: (§2)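 First, alluvial soil in pots is flooded to 4 cm and mixed seed is sown. Next, plants grow in a greenhouse at 25 to 30° C until the 1-2 leaf stage. Then diluted emulsion is applied onto the water surface at the given g/ha rate, and injury is assessed after 3 weeks.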

[7] = system: oval-leafed pondweed; assay: Test Example 1: weedkilling efficacy, preemergent weed treatment in the submerged state; C: oval-leafed pondweed
In short: (§3)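 Emulsion diluted with water to the specified per-hectare dosage is applied onto flood water (4 cm) over alluvial soil on the sowing day, with barnyard grass, bulrush and pondweed seeded and rice (2.5-leaf) transplanted; plants grow at 25–30 °C and are rated at 3 weeks.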

[8] = system: wheat; assay: Test Example 4: foliar treatment, effect on crop; e: wheat
In short: as §1

[9] = system: barnyard grass; assay: Test Example 1: weedkilling efficacy, preemergent weed treatment in the submerged state; A: barnyard grass
In short: as §3

[10] = system: transplanted rice; assay: Test Example 1: preemergent weed treatment in the submerged state, effect on crop; a: transplanted rice
In short: as §3

[11] = system: rapeseed; assay: Test Example 3: soil treatment, effect on crop; g: rapeseed
In short: (§4)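 Crop and weed responses were judged three weeks after a uniform surface spray of the water-diluted emulsion at the given g/ha rate. Seeds sat beneath about 1.5 cm of sterilized diluvial soil, and boxes stood in a greenhouse at 25 to 30° C.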

[12] = system: common wind-grass; assay: Test Example 3: weedkilling efficacy through soil treatment; J: common wind-grass
In short: as §4

[13] = system: directly sown rice; assay: Test Example 3: soil treatment, effect on crop; b: directly sown rice
In short: as §4

[14] = system: black-grass; assay: Test Example 3: weedkilling efficacy through soil treatment; H: black-grass
In short: as §4

[15] = system: common wind-grass; assay: Test Example 4: weedkilling efficacy by foliar treatment; J: common wind-grass
In short: as §1

[16] = system: redroot pigweed; assay: Test Example 4: weedkilling efficacy by foliar treatment; L: redroot pigweed
In short: as §1

[17] = system: oval-leafed pondweed; assay: Test Example 2: weedkilling efficacy, growth period weed treatment in the submerged state; C: oval-leafed pondweed
In short: as §2

[18] = system: barnyard grass; assay: Test Example 3: weedkilling efficacy through soil treatment; F: barnyard grass
In short: as §4

[19] = system: black-grass; assay: Test Example 4: weedkilling efficacy by foliar treatment; H: black-grass
In short: as §1

[20] = system: Indian mallow; assay: Test Example 4: weedkilling efficacy by foliar treatment; K: Indian mallow
In short: as §1

[21] = system: Italian ryegrass; assay: Test Example 4: weedkilling efficacy by foliar treatment; I: Italian ryegrass
In short: as §1

[22] = system: chickweed; assay: Test Example 3: weedkilling efficacy through soil treatment; N: chickweed
In short: as §4

[23] = system: corn; assay: Test Example 3: soil treatment, effect on crop; c: corn
In short: as §4

[24] = system: birds-eye speedwell; assay: Test Example 4: weedkilling efficacy by foliar treatment; p: birds-eye speedwell
In short: as §1

[25] = system: fig-leafed goosefoot; assay: Test Example 3: weedkilling efficacy through soil treatment; M: fig-leafed goosefoot
In short: as §4

[26] = system: wild oat; assay: Test Example 3: weedkilling efficacy through soil treatment; G: wild oat
In short: as §4

[27] = system: directly sown rice; assay: Test Example 4: foliar treatment, effect on crop; b: directly sown rice
In short: as §1

[28] = system: rapeseed; assay: Test Example 4: foliar treatment, effect on crop; g: rapeseed
In short: as §1

[29] = system: redroot pigweed; assay: Test Example 3: weedkilling efficacy through soil treatment; L: redroot pigweed
In short: as §4

[30] = system: barnyard grass; assay: Test Example 4: weedkilling efficacy by foliar treatment; F: barnyard grass
In short: as §1

[31] = system: green foxtail; assay: Test Example 3: weedkilling efficacy through soil treatment; E: green foxtail
In short: as §4

[32] = system: crabgrass; assay: Test Example 4: weedkilling efficacy by foliar treatment; D: crabgrass
In short: as §1

[33] = system: Indian mallow; assay: Test Example 3: weedkilling efficacy through soil treatment; K: Indian mallow
In short: as §4

[34] = system: Italian ryegrass; assay: Test Example 3: weedkilling efficacy through soil treatment; I: Italian ryegrass
In short: as §4

[35] = system: wild oat; assay: Test Example 4: weedkilling efficacy by foliar treatment; G: wild oat
In short: as §1

[36] = system: barnyard grass; assay: Test Example 2: weedkilling efficacy, growth period weed treatment in the submerged state; A: barnyard grass
In short: as §2

[37] = system: chickweed; assay: Test Example 4: weedkilling efficacy by foliar treatment; N: chickweed
In short: as §1

[38] = system: bulrush; assay: Test Example 1: weedkilling efficacy, preemergent weed treatment in the submerged state; B: bulrush
In short: as §3

[39] = system: birds-eye speedwell; assay: Test Example 3: weedkilling efficacy through soil treatment; p: birds-eye speedwell
In short: as §4

[40] = system: soybean; assay: Test Example 3: soil treatment, effect on crop; d: soybean
In short: as §4

[41] = system: wheat; assay: Test Example 3: soil treatment, effect on crop; e: wheat
In short: as §4

[42] = system: crabgrass; assay: Test Example 3: weedkilling efficacy through soil treatment; D: crabgrass
In short: as §4

[43] = system: corn; assay: Test Example 4: foliar treatment, effect on crop; c: corn
In short: as §1

[44] = system: beet; assay: Test Example 3: soil treatment, effect on crop; f: beet
In short: as §4

SMILES: CC1=C(c2ccccc2)C(=O)N(C(C)(C)C(=O)Nc2cc(Cl)cc(C)n2)CO1 [B-2-42]
- M (fig-leafed goosefoot) weedkilling efficacy grade [1]: 4 (weed kill ratio 70% or more, less than 90%)
- d (soybean) effect on crop grade [2]: 4 (weed kill ratio 70% or more, less than 90%)
- f (beet) effect on crop grade [3]: 4 (weed kill ratio 70% or more, less than 90%)
- O (catchweed) weedkilling efficacy grade [4]: 5 (weed kill ratio 90% or more, (practically complete withering))
- E (green foxtail) weedkilling efficacy grade [5]: 5 (weed kill ratio 90% or more, (practically complete withering))
- B (bulrush) weedkilling efficacy grade [6]: 5 (weed kill ratio 90% or more, (practically complete withering))
- C (oval-leafed pondweed) weedkilling efficacy grade [7]: 5 (weed kill ratio 90% or more, (practically complete withering))
- e (wheat) effect on crop grade [8]: 0 (weed kill ratio 5% or less (practically no effect))
- A (barnyard grass) weedkilling efficacy grade [9]: 5 (weed kill ratio 90% or more, (practically complete withering))
- a (transplanted rice) effect on crop grade [10]: 4 (weed kill ratio 70% or more, less than 90%)
- g (rapeseed) effect on crop grade [11]: 4 (weed kill ratio 70% or more, less than 90%)
- J (common wind-grass) weedkilling efficacy grade [12]: 5 (weed kill ratio 90% or more, (practically complete withering))
- b (directly sown rice) effect on crop grade [13]: 4 (weed kill ratio 70% or more, less than 90%)
- H (black-grass) weedkilling efficacy grade [14]: 5 (weed kill ratio 90% or more, (practically complete withering))
- J (common wind-grass) weedkilling efficacy grade [15]: 5 (weed kill ratio 90% or more, (practically complete withering))
- L (redroot pigweed) weedkilling efficacy grade [16]: 4 (weed kill ratio 70% or more, less than 90%)
- C (oval-leafed pondweed) weedkilling efficacy grade [17]: 5 (weed kill ratio 90% or more, (practically complete withering))
- F (barnyard grass) weedkilling efficacy grade [18]: 5 (weed kill ratio 90% or more, (practically complete withering))
- H (black-grass) weedkilling efficacy grade [19]: 5 (weed kill ratio 90% or more, (practically complete withering))
- K (Indian mallow) weedkilling efficacy grade [20]: 5 (weed kill ratio 90% or more, (practically complete withering))
- I (Italian ryegrass) weedkilling efficacy grade [21]: 5 (weed kill ratio 90% or more, (practically complete withering))
- N (chickweed) weedkilling efficacy grade [22]: 4 (weed kill ratio 70% or more, less than 90%)
- c (corn) effect on crop grade [23]: 1 (weed kill ratio 5% or more, less than 20%)
- P (birds-eye speedwell) weedkilling efficacy grade [24]: 4 (weed kill ratio 70% or more, less than 90%)
- M (fig-leafed goosefoot) weedkilling efficacy grade [25]: 4 (weed kill ratio 70% or more, less than 90%)
- G (wild oat) weedkilling efficacy grade [26]: 5 (weed kill ratio 90% or more, (practically complete withering))
- b (directly sown rice) effect on crop grade [27]: 4 (weed kill ratio 70% or more, less than 90%)
- g (rapeseed) effect on crop grade [28]: 4 (weed kill ratio 70% or more, less than 90%)
- L (redroot pigweed) weedkilling efficacy grade [29]: 3 (weed kill ratio 40% or more, less than 70%)
- F (barnyard grass) weedkilling efficacy grade [30]: 5 (weed kill ratio 90% or more, (practically complete withering))
- E (green foxtail) weedkilling efficacy grade [31]: 5 (weed kill ratio 90% or more, (practically complete withering))
- D (crabgrass) weedkilling efficacy grade [32]: 5 (weed kill ratio 90% or more, (practically complete withering))
- K (Indian mallow) weedkilling efficacy grade [33]: 4 (weed kill ratio 70% or more, less than 90%)
- I (Italian ryegrass) weedkilling efficacy grade [34]: 5 (weed kill ratio 90% or more, (practically complete withering))
- G (wild oat) weedkilling efficacy grade [35]: 3 (weed kill ratio 40% or more, less than 70%)
- A (barnyard grass) weedkilling efficacy grade [36]: 5 (weed kill ratio 90% or more, (practically complete withering))
- N (chickweed) weedkilling efficacy grade [37]: 4 (weed kill ratio 70% or more, less than 90%)
- B (bulrush) weedkilling efficacy grade [38]: 5 (weed kill ratio 90% or more, (practically complete withering))
- P (birds-eye speedwell) weedkilling efficacy grade [39]: 5 (weed kill ratio 90% or more, (practically complete withering))
- d (soybean) effect on crop grade [40]: 0 (weed kill ratio 5% or less (practically no effect))
- e (wheat) effect on crop grade [41]: 0 (weed kill ratio 5% or less (practically no effect))
- D (crabgrass) weedkilling efficacy grade [42]: 5 (weed kill ratio 90% or more, (practically complete withering))
- c (corn) effect on crop grade [43]: 3 (weed kill ratio 40% or more, less than 70%)
- f (beet) effect on crop grade [44]: 4 (weed kill ratio 70% or more, less than 90%)
